Reference: patent publication US5156956A, “Transgultaminase” (Ajinomoto Co., Inc., priority 1987, dated 1992)
Residues, ends and D or L forms follow the SMILES beside them. *: point of attachment. Cbz = O=C(OCc1ccccc1)*

The compounds below were run on BTGase (assay: Substrate specificity, statement on all BTGases). Settings: substrate 5 mM, with hydroxylamine.
Format: biochemical, Streptoverticillium
Procedure: (§1) Using each BTGase, reactions of various synthetic substrates with hydroxylamine were examined. […] In this case, the concentration of various synthetic substrates is 5 mM. In the table, CBZ, Gln, Gly and Asn are abbreviations for benzyloxycarbonyl group, glutaminyl group, glycyl group and asparaginyl group, respectively.

SMILES | Reactivity of synthetic substrate with the BTGases (in words)
NCC(=O)N[C@@H](CCC(N)=O)C(=O)NCC(=O)O [Gly--Gln--Gly, glycylglutaminyl glycine] (H-Gly-Gln-Gly-OH) | No BTGase reacts

These compounds were tested against T1, MTGase (transglutaminase of guinea pig liver) (UniProt P08587) (assay: Substrate specificity: synthetic substrates). Settings: Table 4.
T1 construct: from tissue; host or cells: guinea pig liver
T1 sequence (P08587 1-690): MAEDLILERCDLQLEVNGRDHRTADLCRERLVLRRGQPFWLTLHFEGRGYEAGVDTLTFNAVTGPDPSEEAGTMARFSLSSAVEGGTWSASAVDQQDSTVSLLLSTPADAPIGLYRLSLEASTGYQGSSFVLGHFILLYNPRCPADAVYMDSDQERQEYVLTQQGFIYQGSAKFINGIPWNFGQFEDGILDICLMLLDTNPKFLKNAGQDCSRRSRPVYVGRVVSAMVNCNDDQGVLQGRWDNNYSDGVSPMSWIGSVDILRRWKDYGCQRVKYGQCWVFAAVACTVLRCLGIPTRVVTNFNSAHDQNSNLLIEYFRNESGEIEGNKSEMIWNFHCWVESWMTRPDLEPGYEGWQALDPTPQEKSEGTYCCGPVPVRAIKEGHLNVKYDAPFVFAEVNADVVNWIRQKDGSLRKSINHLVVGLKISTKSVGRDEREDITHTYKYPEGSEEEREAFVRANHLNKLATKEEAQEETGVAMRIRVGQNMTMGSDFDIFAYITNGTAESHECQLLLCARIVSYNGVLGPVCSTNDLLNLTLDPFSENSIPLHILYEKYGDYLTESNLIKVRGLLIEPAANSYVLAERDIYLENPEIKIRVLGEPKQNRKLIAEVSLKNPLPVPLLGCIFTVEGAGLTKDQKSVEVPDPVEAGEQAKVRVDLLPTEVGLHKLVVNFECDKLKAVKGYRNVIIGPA
Format: biochemical
Procedure: Next, properties of BTGases are compared to those of guinea pig liver-derived transglutaminase. The guinea pig liver-derived transglutaminase was prepared by the method described in Published Unexamined Japanese Patent Application No. 149645/83. As will be apparent from Tables 4 and 5, various differences in enzymological properties are noted between transglutaminase of guinea pig liver (hereafter referred to as MTGase) which has been mainly investigated heretofore and BTGases derived from actinomycetes; in particular, differences are noted in temperature stability, molecular weight, isoelectric point and substrate specificity. Further, a difference is noted in that the BTGases of the present invention act in the presence and absence of Ca^2+. Therefore, the respective enzymes of the present invention are different from MTGase in their properties.

SMILES | Substrate specificity (%) MTGase [%]
NC(=O)CC[C@H](NC(=O)CNC(=O)CNC(=O)OCc1ccccc1)C(=O)NCC(=O)O [CBZ--Gly--Gly--Gln--Gly] (Cbz-GGQG-OH) | 27
CCOC(=O)CNC(=O)[C@H](CCC(N)=O)NC(=O)OCc1ccccc1 [CBZ--Gln--Gly--OEt] (Cbz-Gln-Gly-OEt) | 122
NC(=O)CC[C@H](NC(=O)CNC(=O)OCc1ccccc1)C(=O)NCC(=O)NCC(=O)O [CBZ--Gly--Gln--Gly--Gly] (Cbz-GQGG-OH) | 126
NC(=O)CC[C@H](NC(=O)OCc1ccccc1)C(=O)N[C@@H](CCC(N)=O)C(=O)NCC(=O)O [CBZ--Gln--Gln--Gly] (Cbz-Gln-Gln-Gly-OH) | 288

These compounds were tested against T2, BTG-1 (Streptomyces mobaraensis, UniProt P81453) (assay: Substrate specificity: synthetic substrates with hydroxylamine). Settings: Table 4.
T2 construct: BTGase is dissolved in the culture solution and can be harvested from the culture filtrate; endogenous in cells; host or cells: Streptoverticillium mobaraense IFO 13819 (natural producer; purified from culture filtrate)
T2 sequence (P81453 77-407): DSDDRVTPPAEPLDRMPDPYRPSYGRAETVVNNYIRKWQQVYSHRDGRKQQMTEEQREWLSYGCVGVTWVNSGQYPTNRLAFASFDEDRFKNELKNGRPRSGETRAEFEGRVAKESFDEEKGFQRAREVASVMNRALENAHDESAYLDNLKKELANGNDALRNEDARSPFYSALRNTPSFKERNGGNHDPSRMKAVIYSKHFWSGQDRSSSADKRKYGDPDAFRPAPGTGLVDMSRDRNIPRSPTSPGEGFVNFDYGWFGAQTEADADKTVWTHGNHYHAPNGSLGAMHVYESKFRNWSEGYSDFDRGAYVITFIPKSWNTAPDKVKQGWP
Format: biochemical, Streptoverticillium mobaraense IFO 13819
Procedure: (§2) Measurement of the activity of BTGase is carried out by performing a reaction using benzyloxycarbonyl-L-glutaminyl glycine and hydroxylamine as substrates in the absence of Ca^2+, forming an iron complex with the resulting hydroxamic acid in the presence of trichloroacetic acid, measuring absorption at 525 nm and determining the amount of hydroxamic acid by a calibration curve to calculate the activity. The BTGase activity is measured by the method described below, unless otherwise indicated.
(§3) To 0.05 ml of an enzyme solution is added 0.5 ml of Reagent A and they are mixed with each other. After reacting at 37° C. for 30 minutes, Reagent B is added thereto to discontinue the reaction and form an Fe complex. Thereafter, absorbance is measured at 525 nm. […] Separately, a calibration curve is prepared using L-glutamic acid γ-monohydroxamio acid instead of the enzyme solution, and the amount of hydroxamic acid produced is determined by the difference in absorbance described above. An enzyme activity which produces 1 μmol of hydroxamic acid per 1 minute is defined as 1 unit.
as §1

SMILES | Substrate specificity (%) BTG-1 [%]
NC(=O)CC[C@H](NC(=O)CNC(=O)CNC(=O)OCc1ccccc1)C(=O)NCC(=O)O [CBZ--Gly--Gly--Gln--Gly] (Cbz-GGQG-OH) | 23
CCOC(=O)CNC(=O)[C@H](CCC(N)=O)NC(=O)OCc1ccccc1 [CBZ--Gln--Gly--OEt] (Cbz-Gln-Gly-OEt) | 63
NC(=O)CC[C@H](NC(=O)CNC(=O)OCc1ccccc1)C(=O)NCC(=O)NCC(=O)O [CBZ--Gly--Gln--Gly--Gly] (Cbz-GQGG-OH) | 8
NC(=O)CC[C@H](NC(=O)OCc1ccccc1)C(=O)N[C@@H](CCC(N)=O)C(=O)NCC(=O)O [CBZ--Gln--Gln--Gly] (Cbz-Gln-Gln-Gly-OH) | 38

Same assay, conditions: substrate 5 mM, with hydroxylamine

SMILES | Reactivity of substrate with BTG-1 (relative, Table 1)
NC(=O)CC[C@H](NC(=O)CNC(=O)CNC(=O)OCc1ccccc1)C(=O)NCC(=O)O [CBZ--Gly--Gly--Gln--Gly] (Cbz-GGQG-OH) | 23
CCOC(=O)CNC(=O)[C@H](CCC(N)=O)NC(=O)OCc1ccccc1 [CBZ--Gln--Gly--OEt] (Cbz-Gln-Gly-OEt) | 63
NC(=O)CC[C@H](NC(=O)CNC(=O)OCc1ccccc1)C(=O)NCC(=O)NCC(=O)O [CBZ--Gly--Gln--Gly--Gly] (Cbz-GQGG-OH) | 8
NC(=O)CC[C@H](NC(=O)OCc1ccccc1)C(=O)N[C@@H](CCC(N)=O)C(=O)NCC(=O)O [CBZ--Gln--Gln--Gly] (Cbz-Gln-Gln-Gly-OH) | 38
NCC(=O)N[C@@H](CCC(N)=O)C(=O)NCC(=O)O [Gly--Gln--Gly, glycylglutaminyl glycine] (H-Gly-Gln-Gly-OH) | 0

What follows are compounds tested against T3, BTG-3 (Streptomyces cinnamoneus, UniProt Q8GR90) in the same assay as above. Settings: Table 4.
T3 construct: Ca2+-independent; made as pre-pro-protein
T3 sequence (Q8GR90 86-416): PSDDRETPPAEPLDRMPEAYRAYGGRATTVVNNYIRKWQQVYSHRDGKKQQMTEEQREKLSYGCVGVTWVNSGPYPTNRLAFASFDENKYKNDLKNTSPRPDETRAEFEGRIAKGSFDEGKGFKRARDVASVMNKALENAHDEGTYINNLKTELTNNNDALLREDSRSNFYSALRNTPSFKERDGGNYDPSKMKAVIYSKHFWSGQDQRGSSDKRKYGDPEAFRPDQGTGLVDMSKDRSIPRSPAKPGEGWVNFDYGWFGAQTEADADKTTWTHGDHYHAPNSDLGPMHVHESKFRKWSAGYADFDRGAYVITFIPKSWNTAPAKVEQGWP
Format: biochemical
Procedure: as §2, §3, §1

SMILES | Substrate specificity (%) BTG-3 [%]
NC(=O)CC[C@H](NC(=O)CNC(=O)CNC(=O)OCc1ccccc1)C(=O)NCC(=O)O [CBZ--Gly--Gly--Gln--Gly] (Cbz-GGQG-OH) | 60
CCOC(=O)CNC(=O)[C@H](CCC(N)=O)NC(=O)OCc1ccccc1 [CBZ--Gln--Gly--OEt] (Cbz-Gln-Gly-OEt) | 42
NC(=O)CC[C@H](NC(=O)CNC(=O)OCc1ccccc1)C(=O)NCC(=O)NCC(=O)O [CBZ--Gly--Gln--Gly--Gly] (Cbz-GQGG-OH) | 11
NC(=O)CC[C@H](NC(=O)OCc1ccccc1)C(=O)N[C@@H](CCC(N)=O)C(=O)NCC(=O)O [CBZ--Gln--Gln--Gly] (Cbz-Gln-Gln-Gly-OH) | 35

Same assay, conditions: substrate 5 mM, with hydroxylamine

SMILES | Reactivity of substrate with BTG-3 (relative, Table 1)
NC(=O)CC[C@H](NC(=O)CNC(=O)CNC(=O)OCc1ccccc1)C(=O)NCC(=O)O [CBZ--Gly--Gly--Gln--Gly] (Cbz-GGQG-OH) | 60
CCOC(=O)CNC(=O)[C@H](CCC(N)=O)NC(=O)OCc1ccccc1 [CBZ--Gln--Gly--OEt] (Cbz-Gln-Gly-OEt) | 42
NC(=O)CC[C@H](NC(=O)CNC(=O)OCc1ccccc1)C(=O)NCC(=O)NCC(=O)O [CBZ--Gly--Gln--Gly--Gly] (Cbz-GQGG-OH) | 11
NC(=O)CC[C@H](NC(=O)OCc1ccccc1)C(=O)N[C@@H](CCC(N)=O)C(=O)NCC(=O)O [CBZ--Gln--Gln--Gly] (Cbz-Gln-Gln-Gly-OH) | 35
NCC(=O)N[C@@H](CCC(N)=O)C(=O)NCC(=O)O [Gly--Gln--Gly, glycylglutaminyl glycine] (H-Gly-Gln-Gly-OH) | 0

What follows are compounds tested against T4, BTG-2 (Streptomyces griseocarneus, UniProt A0ABX7RSJ1) in the same assay as above. Settings: Table 4.
T4 construct: Ca2+-independent; made as pre-pro-protein
Format: biochemical, Streptoverticillium griseocarneum IFO 12776
Procedure: as §2, §3, §1

SMILES | Substrate specificity (%) BTG-2 [%]
NC(=O)CC[C@H](NC(=O)CNC(=O)CNC(=O)OCc1ccccc1)C(=O)NCC(=O)O [CBZ--Gly--Gly--Gln--Gly] (Cbz-GGQG-OH) | 58
CCOC(=O)CNC(=O)[C@H](CCC(N)=O)NC(=O)OCc1ccccc1 [CBZ--Gln--Gly--OEt] (Cbz-Gln-Gly-OEt) | 44
NC(=O)CC[C@H](NC(=O)CNC(=O)OCc1ccccc1)C(=O)NCC(=O)NCC(=O)O [CBZ--Gly--Gln--Gly--Gly] (Cbz-GQGG-OH) | 12
NC(=O)CC[C@H](NC(=O)OCc1ccccc1)C(=O)N[C@@H](CCC(N)=O)C(=O)NCC(=O)O [CBZ--Gln--Gln--Gly] (Cbz-Gln-Gln-Gly-OH) | 39

Same assay, conditions: substrate 5 mM, with hydroxylamine

SMILES | Reactivity of substrate with BTG-2 (relative, Table 1)
NC(=O)CC[C@H](NC(=O)CNC(=O)CNC(=O)OCc1ccccc1)C(=O)NCC(=O)O [CBZ--Gly--Gly--Gln--Gly] (Cbz-GGQG-OH) | 58
CCOC(=O)CNC(=O)[C@H](CCC(N)=O)NC(=O)OCc1ccccc1 [CBZ--Gln--Gly--OEt] (Cbz-Gln-Gly-OEt) | 44
NC(=O)CC[C@H](NC(=O)CNC(=O)OCc1ccccc1)C(=O)NCC(=O)NCC(=O)O [CBZ--Gly--Gln--Gly--Gly] (Cbz-GQGG-OH) | 12
NC(=O)CC[C@H](NC(=O)OCc1ccccc1)C(=O)N[C@@H](CCC(N)=O)C(=O)NCC(=O)O [CBZ--Gln--Gln--Gly] (Cbz-Gln-Gln-Gly-OH) | 39
NCC(=O)N[C@@H](CCC(N)=O)C(=O)NCC(=O)O [Gly--Gln--Gly, glycylglutaminyl glycine] (H-Gly-Gln-Gly-OH) | 0
